Test results reported in patent US20240199648A1, “MAP4K1 INHIBITORS” (Blueprint Medicines Corporation, priority 2021, published 2024).
Like-named read-outs stand apart in the source and are kept apart here.

Experiments:
MAP4K1 (HPK1) = molecular target: T1, MAP4K1 (HPK1) (Homo sapiens, UniProt Q92918); test: Inhibition of MAP4K1 biochemical enzymatic activity (EZReader 2 electrophoretic mobility shift assay); details: HPK1 (Invitrogen), S6K2tide 1.5 μM, 120 min; ATP 26 μM or 1000 μM (not stated which)
T1 construct: purchased Invitrogen
T1 sequence (Q92918 whole entry): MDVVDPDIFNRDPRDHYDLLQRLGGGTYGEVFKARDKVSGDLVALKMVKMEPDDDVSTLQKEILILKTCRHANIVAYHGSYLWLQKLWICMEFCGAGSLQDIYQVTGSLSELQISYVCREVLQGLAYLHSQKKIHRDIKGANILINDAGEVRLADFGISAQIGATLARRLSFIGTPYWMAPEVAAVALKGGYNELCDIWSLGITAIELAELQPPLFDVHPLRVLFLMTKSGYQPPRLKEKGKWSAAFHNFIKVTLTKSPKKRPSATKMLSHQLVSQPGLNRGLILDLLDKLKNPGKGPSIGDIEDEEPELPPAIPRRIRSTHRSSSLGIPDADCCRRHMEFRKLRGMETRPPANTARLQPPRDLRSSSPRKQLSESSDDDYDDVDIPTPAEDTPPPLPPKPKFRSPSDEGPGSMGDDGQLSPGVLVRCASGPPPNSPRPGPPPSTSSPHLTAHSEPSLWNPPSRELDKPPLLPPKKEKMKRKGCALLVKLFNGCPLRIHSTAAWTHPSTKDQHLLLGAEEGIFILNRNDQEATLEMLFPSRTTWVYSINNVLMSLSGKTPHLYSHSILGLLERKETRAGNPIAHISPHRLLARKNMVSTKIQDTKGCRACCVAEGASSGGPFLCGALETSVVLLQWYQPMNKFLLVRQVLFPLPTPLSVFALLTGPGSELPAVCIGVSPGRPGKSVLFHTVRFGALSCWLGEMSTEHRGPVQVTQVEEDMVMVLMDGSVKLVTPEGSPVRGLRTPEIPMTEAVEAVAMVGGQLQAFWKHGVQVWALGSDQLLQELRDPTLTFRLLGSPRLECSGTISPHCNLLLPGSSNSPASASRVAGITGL
Source text: MAP4K1 (HPK1) and relevant off-target enzymatic activity was monitored using the Perkin Elmer electrophoretic mobility shift technology platform—the EZReader 2. […] Within the linear, steady-state phase of the kinase enzymatic reaction, the mixed pool of phosphorylated (product) and non-phosphorylated (substrate) peptides was passed through the microfluidic system of the PerkinElmer EZ Reader 2, under an applied electric potential difference. The presence of the phosphate group on the product peptide provided a difference in mass and charge between that of the substrate peptide, resulting in a separation of the substrate and product pools in the sample (Perrin et al. 2010). As the product and substrate peptide mixture passes the lasers within the instrument, these pools are detected (λex=488 nm, λem=568 nm) and resolved as separate peaks. The ratio between these peaks reflects the activity of the compound at that concentration, in that well, under those conditions.
Inhibitors were dissolved in 100% DMSO at a stock concentration of 10 mM. A 100×, 10-point, 4-fold serial dilution of each inhibitor was created in 100% DMSO either manually or on a Hamilton STAR liquid handler, starting at a relevant concentration, usually 1 mM. A volume of 0.130 μL of each concentration was transferred to the relevant wells of a 384-well plate (Greiner 781 201) in diplicate using a TTPLabtech Mosquito nano-litre dispenser. Using a Multidrop Combi, the remaining constituents of the kinase reaction were added to the 130 nL of dosed compound as follows (see table below for final reaction details):
Enzyme activity assays at the ^APPKM for ATP or 1 mM ATP: In each well of a 384-well plate, 0.1-15 nM of untreated enzyme was incubated in a total of 13 μL of buffer (100 mM HEPES pH 7.5, 0.015% Brij 35, 10 mM MgCl2, 1 mM DTT) with 1.5 μM fluorescent peptid and 20-1000 μM ATP, at 25° C., for 60-180 minutes in the presence or absence of a dosed concentration series of compound (1% DMSO final concentration). The kinase reactions were stopped by the addition of 70 μl of Stop buffer (100 mM HEPES pH 7.5, 0.015% Brij 35, 35 mM EDTA and 0.2% of Coating Reagent 3 (Caliper Lifesciences)). The plates were read on a Caliper EZReader 2 as described above.

Primary T Cell = test: T cell enhancement of cytokines: IL2 measurement (HTRF) in expanded CD3+ T cells stimulated with anti-CD3/anti-CD28; type: cell-based, human; details: plate-bound anti-CD3 and soluble anti-CD28, 24 h, read-out: IL-2 Primary T Cell EC50
Protocol: T cells are isolated from whole blood of healthy donors by immunomagnetic negative selection following manufacture's protocol (StemCell Technologies, human T cell isolation kit). Purity of isolated cells is assessed by flow cytometry and yields 95-98% CD3^+ T cells. For expansion of T cells, 1×10^6 cells/well are plated in serum free cell expansion media (ThermoFisher) containing 30U of recombinant human IL2 (R&D) and stimulated with 25 ul of CD3/CD28 beads (Invitrogen) in 24 well plates for 3-4 days. T cells are then expanded in 175 cm flasks and maintained at a cell density of 1 to 2.5×10^6 cells/ml days by addition of ⅔ of fresh media every 2-3 days. After 10-14 days, cells are frozen in BamBanker freezing media (Thermo) and stored in liquid nitrogen.
For IL2 measurement, expanded CD3+ T cells are dispensed at 100K cells/well (cultured in X-VIVO 10 Serum-free media) and are stimulated with plate-bound anti-CD3 and soluble anti-CD28 in the presence of vehicle or compound of the disclosure at various concentrations for 24 h. As outlined in the manufacturer's protocol (Cisbio), 16 μL of conditioned media is transferred to a white 384-well low volume plate. Following a 24 h incubation with the anti-IL2 antibodies, the homogenous time resolved fluorescence (HTRF) is measured.

Structure (SMILES)	IC50 (MAP4K1 (HPK1)) [nM]	EC50 (Primary T Cell; Homo sapiens, T-cell, 24 h) [nM]	EC50 (Primary T Cell) [nM]
C[C@@H]1c2nc(Nc3cc4c(C(C)(C)N)cnc(O[C@@H]5CN(C(=O)C6CC6)[C@H]5C)c4cn3)ccc2C(=O)OC1(C)C [Compound 65]	0.2	17.5	
COC[C@@](C)(N)c1cnc(OC2CN(C(=O)C3CC3)C2)c2cnc(Nc3ccc4c(n3)[C@@H](C)[C@H](C)OC4=O)cc12 [Compound 80]	0.17	62.9	
CCC(=O)N1CC(Oc2ncc(C(C)(C)N)c3cc(Nc4ccc5c(n4)[C@@H](C)C(C)(C)OC5=O)ncc23)C1 [Compound 6]	0.2	22.5	
C[C@@H]1c2nc(Nc3cc4c(C(C)(C)N)cnc(OCCN5CCCC5=O)c4cn3)ccc2C(=O)OC1(C)C [Compound 31]	0.21	42.8	
COC[C@@](C)(N)c1cnc(OC2CN(C(C)=O)[C@H]2C)c2cnc(Nc3ccc4c(n3)[C@@H](C)C(C)(C)OC4=O)cc12 (stereo partly drawn) [Compound 122]	0.12	53.7	
C[C@@H]1OC(=O)c2ccc(Nc3cc4c(C(C)(C)N)cnc(OC5CN(C(=O)[C@@H]6C[C@@H]6F)[C@H]5C)c4cn3)nc2[C@H]1C (stereo partly drawn) [Compound 85]	0.1	17.8	
COC[C@@](C)(N)c1cnc(OC2CN(C(=O)OC)C2)c2cnc(Nc3ccc4c(n3)[C@@H](C)C(C)(C)OC4=O)cc12 [Compound 125]	0.17	130	
C[C@@H]1OC(=O)c2ccc(Nc3cc4c(C(C)(C)N)cnc(OC5CN(C(=O)N(C)C)C5)c4cn3)nc2[C@H]1C [Compound 34]	0.19	43.3	
CC[C@@](C)(N)c1cnc(OC2CN(C(C)=O)C2)c2cnc(Nc3ccc4c(n3)C(C)(C)COC4=O)cc12 [Compound 111]	0.43	9.6	
COC1CN(C(=O)[C@H]2C[C@@H](Oc3ncc(C(C)(C)N)c4cc(Nc5ccc6c(n5)[C@@H](C)[C@H](C)OC6=O)ncc34)C2)C1 [Compound 92]	0.17	34	
CC(=O)N1C[C@@H](Oc2ncc(C(C)(C)N)c3cc(Nc4ccc5c(n4)[C@@H](C)C(C)(C)OC5=O)ncc23)[C@@H]1C [Compound 7]	0.12	22.3	
C[C@@H]1c2nc(Nc3cc4c(C(C)(C)N)cnc(OC5CN(C(=O)C6CC6)C5)c4cn3)ccc2C(=O)OC1(C)C [Compound 8]	0.16	32.7	
CCC(=O)N1C[C@@H](Oc2ncc(C(C)(C)N)c3cc(Nc4ccc5c(n4)[C@@H](C)C(C)(C)OC5=O)ncc23)[C@@H]1C [Compound 118]	0.17	17.7	
C[C@@H]1c2nc(Nc3cc4c(C(C)(C)N)cnc(OCCCC(=O)N(C)C)c4cn3)ccc2C(=O)OC1(C)C [Compound 39]	0.14	14	
COC1CN(C(=O)[C@H]2C[C@@H](Oc3ncc(C(C)(C)N)c4cc(Nc5ccc6c(n5)[C@@H](C)C(C)(C)OC6=O)ncc34)C2)C1 [Compound 15, (R)-2-((5-(2-aminopropan-2-yl)-8-((cis)-3-(3-methoxyazetidine-1-carbonyl)cyclobutoxy)-2,7-naphthyridin-3-yl)amino)-7,7,8-trimethyl-7,8-dihydro-5H-pyrano[4,3-b]pyridin-5-one]	0.13	42	

The remaining lines, values ahead:

IC50 (MAP4K1 (HPK1)) [nM]	EC50 (Primary T Cell; Homo sapiens, T-cell, 24 h) [nM]	EC50 (Primary T Cell) [nM]	Structure (SMILES)
0.26	99.3		CC[C@@H](N)c1ccc(OC2CN(C(C)=O)C2)c2cnc(Nc3ccc4c(n3)[C@@H](C)C(C)(C)OC4=O)cc12 (stereo in doubt) [Compound 20]
0.15	9.2		C[C@@H]1OC(=O)c2ccc(Nc3cc4c(C(C)(C)N)cnc(O[C@H]5C[C@@H](C(=O)N(C)C)C5)c4cn3)nc2[C@H]1C [Compound 33]
0.2	41.5		COC[C@@](C)(N)c1cnc(OC2CN(C(=O)OC)C2)c2cnc(Nc3ccc4c(n3)[C@@H](C)[C@H](C)OC4=O)cc12 [Compound 121]
0.12	24		C[C@@H]1OC(=O)c2ccc(Nc3cc4c(C(C)(C)N)cnc(OC5CN(C(=O)C6(C(F)(F)F)CC6)C5)c4cn3)nc2[C@H]1C [Compound 102]
0.14	16.8		CC(=O)N1CC(Oc2ccc(C(C)(C)N)c3cc(Nc4ccc5c(n4)[C@@H](C)C(C)(C)OC5=O)ncc23)C1 [Compound 21, (R)-2-((8-((1-Acetylazetidin-3-yl)oxy)-5-(2-aminopropan-2-yl)isoquinolin-3-yl)amino)-7,7,8-trimethyl-7,8-dihydro-5H-pyrano[4,3-b]pyridin-5-one]
0.16	10.5		C[C@@H]1c2nc(Nc3cc4c(C(C)(C)N)cnc(OC5CN(C(=O)[C@@H]6C[C@@H]6F)C5)c4cn3)ccc2C(=O)OC1(C)C [Compound 12]
0.13	8.1		C[C@@H]1OC(=O)c2ccc(Nc3cc4c(C(C)(C)N)cnc(OC5CN(C(=O)[C@@H]6C[C@@H]6F)C5)c4cn3)nc2[C@H]1C [Compound 10]
0.09		10.3	COCC(C)(N)c1cnc(OC2CN(C(=O)C3CC3F)C2)c2cnc(Nc3ccc4c(n3)C(C)C(C)OC4=O)cc12 (single isomer, unassigned) [Compound 96]
0.24	25.7		CC[C@@](C)(N)c1cnc(OC2CN(C(=O)C3CC3)C2)c2cnc(Nc3ccc4c(n3)[C@@H](C)[C@H](C)OC4=O)cc12 [Compound 49]
0.18	34.7		CC(=O)N1CC(Oc2ncc(C(C)(C)N)c3cc(Nc4ccc5c(n4)[C@@H](C)[C@H](C)OC5=O)ncc23)C1 [Compound 1, (7S,8R)-2-((8-((1-acetylazetidin-3-yl)oxy)-5-(2-aminopropan-2-yl)-2,7-naphthyridin-3-yl)amino)-7,8-dimethyl-7,8-dihydro-5H-pyrano[4,3-b]pyridin-5-one]
0.36		50.1	COCC(C)(N)c1cnc(OC2CN(C(=O)C3CC3F)C2)c2cnc(Nc3ccc4c(n3)C(C)C(C)OC4=O)cc12 (single isomer, unassigned) [Compound 97]
0.54	479		CC(=O)N1CC(Nc2ncc(C(C)(C)N)c3cc(Nc4ccc5c(n4)[C@@H](C)C(C)(C)OC5=O)ncc23)C1 [Compound 22]
0.11	22.1		C[C@@H]1c2nc(Nc3cc4c(C(C)(C)N)cnc(O[C@H]5C[C@@H](C(=O)N6CC(F)(F)C6)C5)c4cn3)ccc2C(=O)OC1(C)C [Compound 100]
0.09	74.2		CC[C@H](N)c1cnc(O[C@H]2C[C@@H](C(=O)N3CC(OC)C3)C2)c2cnc(Nc3ccc4c(n3)[C@@H](C)C(C)(C)OC4=O)cc12 (single isomer, unassigned) [Compound 127]
0.29	107		COC[C@@](C)(N)c1cnc(OC2CN(C(C)=O)C2)c2cnc(Nc3ccc4c(n3)[C@@H](C)C(C)(C)OC4=O)cc12 [Compound 62]
0.17	23.2		C[C@@H]1c2nc(Nc3cc4c(C(C)(C)N)cnc(OC5CN(C(=O)[C@H]6C[C@H]6F)C5)c4cn3)ccc2C(=O)OC1(C)C [Compound 13, (R)-2-((5-(2-aminopropan-2-yl)-8-((1-((1R,2R)-2-fluorocyclopropane-1-carbonyl)azetidin-3-yl)oxy)-2,7-naphthyridin-3-yl)amino)-7,7,8-trimethyl-7,8-dihydro-5H-pyrano[4,3-b]pyridin-5-one]
0.16	16.8		C[C@@H]1OC(=O)c2ccc(Nc3cc4c(C(C)(C)N)cnc(OC5CN(C(=O)[C@H]6C[C@H]6F)C5)c4cn3)nc2[C@H]1C [Compound 9]
0.17	47.3		C[C@@H]1OC(=O)c2ccc(Nc3cc4c(C(C)(C)N)cnc(OC5CN(C(=O)[C@@H]6CCCO6)C5)c4cn3)nc2[C@H]1C [Compound 76]
